Data taken from ChEMBL document CHEMBL3792365, “Dioxol and dihydrodioxin analogs of 2- and 3-phenylacetonitriles as potent anti-cancer agents with nanomolar activity against a variety of human cancer cells” (2016).

Columns and labels:
Type in all cases: functional
[1] = Growth inhibition of human LOXIMVI cells at 10 uM after 48 hrs by sulforhodamine B assay; conditions: LOX IMVI, values are per cent of control
NCI-H460 = experiment: Growth inhibition of human NCI-H460 cells at 10 uM after 48 hrs by sulforhodamine B assay; conditions: NCI-H460, 48 h, values are per cent of control
ACHN = experiment: Growth inhibition of human ACHN cells at 10 uM after 48 hrs by sulforhodamine B assay; conditions: values are per cent of control
[2] = Growth inhibition of human NCI-ADR-RES cells at 10 uM after 48 hrs by sulforhodamine B assay; conditions: values are per cent of control
[3] = Growth inhibition of human SW620 cells at 10 uM after 48 hrs by sulforhodamine B assay; conditions: SW-620, 48 h, values are per cent of control
[4] = Growth inhibition of human TK10 cells at 10 uM after 48 hrs by sulforhodamine B assay; conditions: TK-10, 48 h, values are per cent of control
[5] = Growth inhibition of human HCT116 cells at 10 uM after 48 hrs by sulforhodamine B assay; conditions: HCT-116, 48 h, values are per cent of control
[6] = Growth inhibition of human UACC62 cells at 10 uM after 48 hrs by sulforhodamine B assay; conditions: UACC-62, 48 h, values are per cent of control
[7] = Growth inhibition of human OVCAR4 cells at 10 uM after 48 hrs by sulforhodamine B assay; conditions: OVCAR-4, 48 h, values are per cent of control
U-251 = experiment: Growth inhibition of human U251 cells at 10 uM after 48 hrs by sulforhodamine B assay; conditions: U-251, 48 h, values are per cent of control
SK-MEL-28 = experiment: Growth inhibition of human SK-MEL-28 cells at 10 uM after 48 hrs by sulforhodamine B assay; conditions: SK-MEL-28, 48 h, values are per cent of control
A549 = experiment: Growth inhibition of human A549/ATCC cells at 10 uM after 48 hrs by sulforhodamine B assay; conditions: A549, 48 h, values are per cent of control
NCI-H23 = experiment: Growth inhibition of human NCI-H23 cells at 10 uM after 48 hrs by sulforhodamine B assay; conditions: NCI-H23, 48 h, values are per cent of control
[8] = Growth inhibition of human COLO205 cells at 10 uM after 48 hrs by sulforhodamine B assay; conditions: COLO 205, 48 h, values are per cent of control
[9] = Growth inhibition of human OVCAR8 cells at 10 uM after 48 hrs by sulforhodamine B assay; conditions: OVCAR-8, 48 h, values are per cent of control
NCI-H322M = experiment: Growth inhibition of human NCI-H322M cells at 10 uM after 48 hrs by sulforhodamine B assay; conditions: values are per cent of control
[10] = Growth inhibition of human BT549 cells at 10 uM after 48 hrs by sulforhodamine B assay; conditions: BT-549, 48 h, values are per cent of control
[11] = Growth inhibition of human HOP62 cells at 10 uM after 48 hrs by sulforhodamine B assay; conditions: HOP-62, 48 h, values are per cent of control
[12] = Growth inhibition of human SF295 cells at 10 uM after 48 hrs by sulforhodamine B assay; conditions: SF-295, 48 h, values are per cent of control
SK-MEL-2 = experiment: Growth inhibition of human SK-MEL-2 cells at 10 uM after 48 hrs by sulforhodamine B assay; conditions: SK-MEL-2, 48 h, values are per cent of control
[13] = Growth inhibition of human HCC2998 cells at 10 uM after 48 hrs by sulforhodamine B assay; conditions: HCC 2998, 48 h, values are per cent of control
[14] = Growth inhibition of human DU145 cells at 10 uM after 48 hrs by sulforhodamine B assay; conditions: DU-145, 48 h, values are per cent of control
MDA-MB-468 = experiment: Growth inhibition of human MDA-MB-468 cells at 10 uM after 48 hrs by sulforhodamine B assay; conditions: MDA-MB-468, 48 h, values are per cent of control
[15] = Growth inhibition of human Hs 578T cells at 10 uM after 48 hrs by sulforhodamine B assay; conditions: values are per cent of control
NCI-H522 = experiment: Growth inhibition of human NCI-H522 cells at 10 uM after 48 hrs by sulforhodamine B assay; conditions: NCI-H522, 48 h, values are per cent of control
SR = experiment: Growth inhibition of human SR cells at 10 uM after 48 hrs by sulforhodamine B assay; conditions: values are per cent of control
786-0 = experiment: Growth inhibition of human 786-0 cells at 10 uM after 48 hrs by sulforhodamine B assay; conditions: 786-0, 48 h, values are per cent of control
[16] = Growth inhibition of human IGROV1 cells at 10 uM after 48 hrs by sulforhodamine B assay; conditions: IGROV-1, 48 h, values are per cent of control
[17] = Growth inhibition of human SF539 cells at 10 uM after 48 hrs by sulforhodamine B assay; conditions: SF-539, 48 h, values are per cent of control
[18] = Growth inhibition of human SF268 cells at 10 uM after 48 hrs by sulforhodamine B assay; conditions: SF-268, 48 h, values are per cent of control
[19] = Growth inhibition of human Caki1 cells at 10 uM after 48 hrs by sulforhodamine B assay; conditions: CAKI-1, 48 h, values are per cent of control
T47D = experiment: Growth inhibition of human T47D cells at 10 uM after 48 hrs by sulforhodamine B assay; conditions: values are per cent of control
SK-MEL-5 = experiment: Growth inhibition of human SK-MEL-5 cells at 10 uM after 48 hrs by sulforhodamine B assay; conditions: SK-MEL-5, 48 h, values are per cent of control
[20] = Growth inhibition of human HCT15 cells at 10 uM after 48 hrs by sulforhodamine B assay; conditions: HCT-15, 48 h, values are per cent of control
[21] = Growth inhibition of human RXF393 cells at 10 uM after 48 hrs by sulforhodamine B assay; conditions: RXF 393, 48 h, values are per cent of control
SN12C = experiment: Growth inhibition of human SN12C cells at 10 uM after 48 hrs by sulforhodamine B assay; conditions: values are per cent of control
[22] = Growth inhibition of human SNB19 cells at 10 uM after 48 hrs by sulforhodamine B assay; conditions: SNB-19, 48 h, values are per cent of control
M14 = experiment: Growth inhibition of human M14 cells at 10 uM after 48 hrs by sulforhodamine B assay; conditions: M14, 48 h, values are per cent of control
MDA-MB-435 = experiment: Growth inhibition of human MDA-MB-435 cells at 10 uM after 48 hrs by sulforhodamine B assay; conditions: MDA-MB-435, 48 h, values are per cent of control
NCI-H226 = experiment: Growth inhibition of human NCI-H226 cells at 10 uM after 48 hrs by sulforhodamine B assay; conditions: NCI-H226, 48 h, values are per cent of control

## N#C/C(=C\c1cc(Br)cc(Br)c1)c1ccc2c(c1)OCO2
[1]
  growth, % of control at 10 µM: 97.1%
NCI-H460
  growth, % of control at 10 µM: 99.4%
ACHN
  growth, % of control at 10 µM: 96.1%
[2]
  growth, % of control at 10 µM: 94.9%
[3]
  growth, % of control at 10 µM: 101%
[4]
  growth, % of control at 10 µM: 96.1%
[5]
  growth, % of control at 10 µM: 82.1%
[6]
  growth, % of control at 10 µM: 85.4%
[7]
  growth, % of control at 10 µM: 81.3%
U-251
  growth, % of control at 10 µM: 99.9%
SK-MEL-28
  growth, % of control at 10 µM: 98.9%
A549
  growth, % of control at 10 µM: 79.9%
NCI-H23
  growth, % of control at 10 µM: 91.5%
[8]
  growth, % of control at 10 µM: 106%
[9]
  growth, % of control at 10 µM: 108%
NCI-H322M
  growth, % of control at 10 µM: 91.4%
[10]
  growth, % of control at 10 µM: 91.4%
[11]
  growth, % of control at 10 µM: 104%
[12]
  growth, % of control at 10 µM: 96.4%
SK-MEL-2
  growth, % of control at 10 µM: 88.7%
[13]
  growth, % of control at 10 µM: 90.7%
[14]
  growth, % of control at 10 µM: 94.2%
MDA-MB-468
  growth, % of control at 10 µM: 103%
[15]
  growth, % of control at 10 µM: 112%
NCI-H522
  growth, % of control at 10 µM: 76.3%
SR
  growth, % of control at 10 µM: 79%
786-0
  growth, % of control at 10 µM: 98.2%
[16]
  growth, % of control at 10 µM: 85.1%
[17]
  growth, % of control at 10 µM: 94.4%
[18]
  growth, % of control at 10 µM: 93.5%
[19]
  growth, % of control at 10 µM: 88.1%
T47D
  growth, % of control at 10 µM: 82%
SK-MEL-5
  growth, % of control at 10 µM: 95.4%
[20]
  growth, % of control at 10 µM: 92.6%
[21]
  growth, % of control at 10 µM: 95.5%
SN12C
  growth, % of control at 10 µM: 94.7%
[22]
  growth, % of control at 10 µM: 109%
M14
  growth, % of control at 10 µM: 92.8%
MDA-MB-435
  growth, % of control at 10 µM: 98.7%
NCI-H226
  growth, % of control at 10 µM: 115%
